Source: patent US20130296346A1, “DIPHENYL-AMINE DERIVATIVES: USES, PROCESS OF SYNTHESIS AND PHARMACEUTICAL COMPOSITIONS” (Faes Farma, S.A., priority 2010, published 2013)

Columns and labels:
[1] = test system: colorectal cancer cells from patients with Kras mutation; assay: Mutated Kras colon cancer orthotopic animal model; assay type: in vivo, mice; details: compared with vehicle control, FIG. 4A
Procedure: Using an animal model based on colorectal cancer cells from patients with Kras mutation, implanted on mice in the colon area (Yao, M. Cyclooxygenase-2 selective inhibition with NS-398 suppresses proliferation and invasiveness and delays liver metastasis in colorectal cancer. Br. J. Cancer, 2004 Feb. 9; 90(3):712-9), the effects of Compound 3 were tested.

[2] = Cytotoxicity for human non-tumoral cells, XTT; assay type: cell-based; details: HUVEC cells (primary, from human cords)
Procedure: (§1) The cytotoxicity of the compounds for human non-tumoral cells was studied in fibroblasts, HUVEC cells and resting PBLs (Peripheral Blood lymphocytes).
HUVEC cells were obtained by treating human cords with collagenase type I, […] in Hank's medium incubating 20 minutes at 37° C. Cells were collected afterwards and cultivated in medium M199 with supplements of 20% FBS, 1% P/S and 25 mg/500 ml of medium ECGF, Cells were grown on a 0.2% gelatin matrix.
(§2) Distinct amounts of exponentially growing cells were seeded in 96-well flat-bottomed microtiter plates in a final volume of 100 μl were seeded in 96-well flat-bottomed microtiter plates, and incubated at 37° C. in a humidified atmosphere of 5% CO2/95% air for 24 h to allow the cells attach to the plates. Then, cells were incubated with different concentrations of the assayed compound at 37° C. under the 5% CO2/95% air atmosphere for 72 h. Cell proliferation was quantified using the XTT cell proliferation kit (Roche Molecular Biochemicals, Mannheim, Germany) following the manufacturer's instructions. Briefly, a freshly prepared mixture solution (50 μl) of XTT labelling reagent and PMS (N-methyldibenzopyrazine methyl sulfate) electron coupling reagent was added to each well. The resulting mixtures were further incubated for 4 h in a humidified atmosphere (37° C., 5% CO2), and the absorbance of the formazan product generated was measured with a microtiter plate reader at a test wavelength of 490 nm and a reference wavelength of 655 nm. The IC50 (50% inhibitory concentration) was then calculated as the drug concentration causing a 50% inhibition of cell proliferation. Data are shown as mean values of four independent experiments each performed in triplicate.

[3] = test system: haematological cancer cell lines; assay: Apoptosis induction in haematological cancer cell lines; assay type: cell-based
TNFr = assay: TNF-R transfectant, NF-kB reporter gene (secreted phosphatase); assay type: cell-based
Text: (§3) The secreted phosphatase sPase was used as reporter for its ability to process the luminiscent or colorimetric substrates from the culture based in the hydrolysis of substrates chemically similar to nitrophenol phosphate. Five generation of transfectants were developed as described: • 1. IL-4R. Chains of Type II IL-4-r, which is the common one within non-haematopoietic cells were transfected, as well as STAT6 which the key molecule in the nuclear signalling route by IL-4-r, and finally a reporter gene to measure the response to STAT6 was introduced. Endogenously, cells had Janus Associated Kinase 1 (JAK1) which was previously known to be associated with STAT6 via p62/aPKC. • 2. IL-6R. Chains of IL-6R were transfected and a reporter gene able to measure the response to STAT3 was introduced. As it is well known, STAT3 is a transductional molecule and a nuclear factor physiologically produced in the standard responses IL-6/IL-6R. • 3. TNF-R. In this case, a reporter gene able to measure the response to NF-kB was introduced, as this is the transductional molecule and the nuclear factor physiologically produced in response to TNF-alpha. […] LPS-Receptor complex represented by TLR4/MD2/CD14. Reporter genes with elements of response to NFkB were used as in the previous case, but the selectivity was achieved by the co-transfection of components of the LPS-R complex. The LPS is captured from the serum through the union to one plasma protein known as LBP, which transfers the LPS to the membrane protein CD14. The LBP inclusion accounts for an increase of 1000-fold the sensitivity versus media or cultures LBP-frees. The molecule CD14 is not an LPS-receptor but a module of the receptor complex which captures LBP, allowing the transference of LPS in the cellular surface to MD2. CD14 has not a cytoplasmic tail and it is not able to be a signal transducer but it substantially increases the sensitivity of the system. In a similar way, MD2 is not a signal transducer but the combination of CD14 and MD2 allows the increase of the sensitivity by 10000-fold. • 5. IL-1R. Reporter genes with elements of response to NFkB were used as in the previous case, but the selectivity was achieved by the expression of components belonging to the receptor complex IL-1R. IL-1R belongs to a receptors superfamily which uses TIR transduction domains (Toll-like IL-1R). It is known that the IL-1R route activates mitogen-activated protein kinases (MAPK) of JNK type which in turn generate nuclear factors transcriptionally active as AP-1. The reporter gene includes NFkB and AP-1 sites chained in order to simulate the physiological situation.

[4] = Cytotoxicity for human non-tumoral cells, XTT; assay type: cell-based; details: Fibroblasts
Procedure: as §1, §2

Malm-3M = assay: In vitro cytotoxicity, SRB method; assay type: cell-based; details: Malm-3M melanoma, 72 hours
Procedure: (§4) SRB method was followed (Wieland, V., et al. Sulforhodamine B Assay and Chemosensitivity. Chemosensitivity, volume 1, In Vitro Assays. Methods in Molecular Medicine. Edited by Rosalyn D. Blumenthal. Humana Press, Totowa, N.J., 2005).
(§5) Cells were seeded in microplates of 96 wells. In each well, according to the cell type, specific number of cells were seeded in 200 microliters. In these conditions, cells were cultured for 3 days, with the aim of reaching their exponential phase of growing to assay the product cytotoxicity. The product concentrations were prepared just the day of treatments, after thawing the stock solutions (10 mM). After harvesting the microplate with the seeded cells for 3 days, the culture medium was discarded and replaced by 150 μl of fresh medium in each well. This was followed by the addition of 50 μl of the corresponding product dilution so as the final concentration in the final volume of 200 microliters in each well was the one scheduled. The products, at the assayed concentrations, were in contact with the cell growing monolayer for 72 hours and incubated at 37° C., 5% CO2. Finally, cells were growth arrested adding […] of cold TCA (Trichloroacetic acid) 50%, (final concentration of 10% in the well). Microplate was then maintained at 4° C. for over 60 min to fix cellular proteins till initiation of washing and staining with SRB.
(§6) Cell viability (%)=(Cell population of the treated well/Maximum cell population of the Standard curve)×100.
(§7) Mean viability values for each concentration were calculated from the values obtained for each well in which that concentration was assayed.

HepG2 = assay: In vitro cytotoxicity, SRB method; assay type: cell-based; details: Homo sapiens, HepG2 hepatoma, 72 hours
Procedure: as §4, §5, §6, §7

NCI-H460 = assay: In vitro cytotoxicity, SRB method; assay type: cell-based; details: Homo sapiens, NCI-H460 lung, 72 hours
Procedure: as §4, §5, §6, §7

HCT116 = assay: In vitro cytotoxicity, SRB method; assay type: cell-based; details: Homo sapiens, HCT-116, HCT116 colon cancer, 72 hours
Procedure: as §4, §5, §6, §7

SF268 = assay: In vitro cytotoxicity, SRB method; assay type: cell-based; details: Homo sapiens, SF-268, SF268 glioblastoma, 72 hours
Procedure: as §4, §5, §6, §7

B16-F1 = assay: In vitro cytotoxicity, SRB method; assay type: cell-based; details: Mus musculus, B16-F1 melanoma, 72 hours
Procedure: as §4, §5, §6, §7

SW260 = assay: In vitro cytotoxicity, SRB method; assay type: cell-based; details: SW260 colon cancer, 72 hours
Procedure: as §4, §5, §6, §7

resting human PBLs = assay: Apoptosis of resting human PBLs; assay type: cell-based
Procedure: To isolate normal peripheral blood lymphocytes (PBLs), mononuclear cells were obtained from fresh human peripheral blood from healthy volunteers by centrifugation on Ficoll-Hypaque density gradients, washed with phosphate-buffered saline (PBS), and resuspended in RPMI-1640 medium containing 10% (v/v) heat-inactivated FBS, 2 mM L-glutamine, 100 U/ml penicillin, and 100 μg/ml streptomycin as described (Cabaner et al. Br. J. Pharmacol 127:813-825.1999). Monocytes were depleted by culture dish adherence after overnight incubation. Nonadherent cells (lymphocytes) were washed with PBS and collected. PBL preparations were typically 70-75% CD3^+, 24-29% CD 19^+, and less than 0.4% CD 14^+.

IL4r = assay: IL-4R transfectant, STAT6 reporter gene (secreted phosphatase); assay type: cell-based
Text: as §3

IL6r = assay: IL-6R transfectant, STAT3 reporter gene (secreted phosphatase); assay type: cell-based
Text: as §3

TNF-α = assay: Murine endotoxemia (LPS i.p.), blood serum TNF-α; assay type: in vivo, mice; details: orally 100 mg/kg; 90 min after LPS 1 mg/kg i.p.
Procedure: MATERIAL AND METHODS: Male CD1 mice, weighing between 30 and 35 g and housed under controlled standard conditions, were used. These animal fasted (for 14-16 hours; 12 per group; 6 per cage≅500 cm^2), with a nutritional solution made of Saccharose (8%) and NaCl (0.2%), ad libitum. Oral test treatments were given in suspensions (vehicle: Tween 80 0.1%—NaCl 0.9%), in a 10 ml/kg volume ratio. One hour later, murine endotoxemia was induced by intraperitoneal injection of Lipopolysaccharides from Escherichia coli serotype 055:B5 (Sigma L-2880), at 1 mg/kg dose and in a 10 ml/kg volume ratio, dissolved in sterile saline. Ninety minutes after LPS injection (i.p.), under Isoflurane anaesthesia, 0.5-0.8 ml of blood was extracted by cardiac punction; the blood sample was centrifuged (6000 rpm; 10 minutes; 4° C.) and 2 serum samples were taken and kept frozen at −70° C. until serum TNF-α concentrations were measured (EIA: Mouse TNF/TNF SF1A Quantikine from R&D Systems).

IL6 = assay: Blood serum IL6 in mice treated with parathyroid hormone; assay type: in vivo; details: orally 25 mg/kg; pTH-rp treated mice
Procedure: MATERIAL AND METHODS: Male CD1 mice, between 5 and 7 week and housed under controlled standard conditions, were used. These animal fasted (for 14-16 hours; 12 per group; 6 per cage≅1100 cm^2), with solid and liquid food ad libitum. During 5 days, the animals were treated with 8 i.p. administration of pTH-rp (1-34, human) 15 microgram/0.1 ml/injection
Oral test treatments were given in suspensions (vehicle: Tween 80 0.1%—NaCl 0.9%), in a 10 ml/kg volume ratio., one hour later of pTH injection.
Two hours after last pTH administration and under Isoflurane anaesthesia, 0.5-0.8 ml of blood was extracted by cardiac punction; the blood sample was centrifuged (6000 rpm; 10 minutes; 4° C.) and 2 serum samples were taken and kept frozen at −70° C. until serum IL6 concentrations were measured (EIA: reference number 555240. BD Bioscience).

Structure (SMILES) | tumour volume of human colorectal cancer [1] | IC50 at 72 h [2] [µM] | concentration inducing apoptosis in haematological cancer cell lines [3] | Inhibition of TNFr (TNFr) | IC50 at 72 h [4] [µM] | IC50 (Malm-3M) [µM] | IC50 (HepG2) [µM] | IC50 (NCI-H460) [µM] | IC50 (HCT116) [µM] | IC50 (SF268) [µM] | IC50 (B16-F1) [µM] | IC50 (SW260) [µM] | % Apoptosis PBLs (resting human PBLs; 10^−4 M) [%] | % Apoptosis PBLs (resting human PBLs; 10^−5 M) [%] | effect on PBLs (resting human PBLs; even at 10^−4 M) | Inhibition of IL4r (IL4r) | melting point [°C] | Inhibition of IL6r (IL6r) | reduction of blood serum levels of TNF-α in relation to vehicle group (TNF-α) [%] | reduction of blood serum levels of IL6 in relation to vehicle group (IL6) [%]
O=c1[nH]cc(F)c(=O)[nH]1 [Compound 5-FU, 5-F uracil, reference compound] | not active in the tested experimental conditions | – | – | – | – | – | – | – | – | – | – | – | – | – | – | – | – | – | – | –
C(CCCNCc1cccs1)=C(c1ccccc1)c1ccccc1.Cl [Compound 6, (5,5-diphenyl-pent-4-enyl)-thiophen-2-ylmethyl-amine hydrochloride] | – | 27 | ~10^−6 M | Inhibition of TNFr total | 24 | 13 | 5 to 50 | 17 | 8.1 | 29 | 16 | 13 | 7.2 | 4.1 | hardly affect PBLs | Inhibition of IL4r total | 161 to 161.6 | Inhibition of IL6r total | – | –
C(CCCNCc1ccco1)=C(c1ccccc1)c1ccccc1.Cl [Compound 8, (5,5-diphenyl-pent-4-enyl)furan-2-ylmethylamine hydrochloride] | – | – | – | Inhibition of TNFr total | – | 16 | 5 to 50 | 5 to 50 | 5 to 50 | 5 to 50 | 14 | 5 to 50 | – | – | – | Inhibition of IL4r total | 139 to 141.3 | Inhibition of IL6r total | 37.7 | –
C(CCCNCc1nc2ccccc2[nH]1)=C(c1ccccc1)c1ccccc1.Cl [Compound 11, (1H-benzoimidazol-2-ylmethyl)-(5,5-diphenyl-pent-4-enyl)amine hydrochloride] | – | – | – | Inhibition of TNFr total | – | – | – | – | – | – | – | – | – | – | – | Inhibition of IL4r total | 251 to 253.8 | Inhibition of IL6r total | 35.42 | –
Cl.FC(F)(F)Oc1cccc(CNCCCCC=C(c2ccccc2)c2ccccc2)c1 [Compound 15, (6,6-diphenyl-hex-5-enyl)-(3-trifluoromethoxybenzyl)amine hydrochloride] | – | – | – | – | – | – | – | – | – | – | – | – | – | – | – | – | 96.6 to 98.5 | – | – | 64.58
